Results: ChEMBL document CHEMBL1201862, “PubChem BioAssay data set” (2004)
Calls of active or inactive are those of the source.

Tests used:
[1] = target: T1, Adenosylmethionine-8-amino-7-oxononanoate aminotransferase (Mycobacterium tuberculosis, UniProt P9WQ81); experiment: Mycobacterium tuberculosis BioA enzyme inhibitor Measured in Biochemical System Using Plate Reader - 2163-02_Inhibitor_Dose_CherryPick_Activity.; assay type: functional, Mycobacterium tuberculosis UT205
T1 sequence (P9WQ81 whole entry): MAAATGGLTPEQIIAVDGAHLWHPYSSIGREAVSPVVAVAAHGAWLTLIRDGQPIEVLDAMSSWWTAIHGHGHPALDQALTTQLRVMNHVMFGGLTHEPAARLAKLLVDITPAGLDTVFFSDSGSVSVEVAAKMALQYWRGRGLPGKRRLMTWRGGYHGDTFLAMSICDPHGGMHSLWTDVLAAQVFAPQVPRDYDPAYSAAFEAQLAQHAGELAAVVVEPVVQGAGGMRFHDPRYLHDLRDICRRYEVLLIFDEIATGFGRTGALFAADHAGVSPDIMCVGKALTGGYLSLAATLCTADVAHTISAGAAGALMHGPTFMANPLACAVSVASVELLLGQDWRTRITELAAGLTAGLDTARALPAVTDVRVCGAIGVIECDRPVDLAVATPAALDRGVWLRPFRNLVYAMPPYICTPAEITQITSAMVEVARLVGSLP

[2] = target: T2, DNA repair and recombination protein RAD54-like (Homo sapiens, UniProt Q92698); experiment: RAD54 Holliday junction migration blockers – biochemical, fluorescence, cherry-picked samples, dose series, confirmation (AID 651657); assay type: functional
T2 sequence (Q92698 whole entry): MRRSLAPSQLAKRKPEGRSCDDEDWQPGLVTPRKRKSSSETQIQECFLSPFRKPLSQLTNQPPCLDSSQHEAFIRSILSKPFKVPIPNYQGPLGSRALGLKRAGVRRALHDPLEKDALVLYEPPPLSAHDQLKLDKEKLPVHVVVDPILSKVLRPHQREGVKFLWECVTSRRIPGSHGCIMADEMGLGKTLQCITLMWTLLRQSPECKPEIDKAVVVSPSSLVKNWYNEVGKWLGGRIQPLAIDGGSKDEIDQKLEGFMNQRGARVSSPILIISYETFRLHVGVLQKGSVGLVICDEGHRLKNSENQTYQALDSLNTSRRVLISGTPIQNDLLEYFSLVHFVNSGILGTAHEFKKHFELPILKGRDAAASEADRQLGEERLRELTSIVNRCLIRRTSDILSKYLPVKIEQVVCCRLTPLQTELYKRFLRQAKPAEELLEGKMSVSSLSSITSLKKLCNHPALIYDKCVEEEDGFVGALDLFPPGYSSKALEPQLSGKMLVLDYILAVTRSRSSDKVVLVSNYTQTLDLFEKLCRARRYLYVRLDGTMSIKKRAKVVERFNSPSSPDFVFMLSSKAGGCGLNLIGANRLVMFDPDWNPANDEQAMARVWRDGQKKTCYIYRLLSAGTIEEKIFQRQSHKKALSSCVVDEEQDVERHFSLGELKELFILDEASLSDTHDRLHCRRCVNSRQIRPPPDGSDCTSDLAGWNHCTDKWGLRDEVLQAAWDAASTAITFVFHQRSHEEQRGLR

[3] = target: T3, Ubiquitin-conjugating enzyme E2 N (Homo sapiens, UniProt P61088); assay type: functional;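 note: Dose-response confirmation in a TR-FRET assay detecting UBC13-driven polyubiquitin chain formation, inhibition measured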
T3 sequence (P61088 whole entry): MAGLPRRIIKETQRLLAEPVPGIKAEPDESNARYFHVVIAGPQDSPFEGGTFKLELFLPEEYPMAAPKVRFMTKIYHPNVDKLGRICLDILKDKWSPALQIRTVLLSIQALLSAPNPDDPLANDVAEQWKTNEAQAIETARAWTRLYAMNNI

[4] = target: T4, DNA repair protein RAD52 homolog (Homo sapiens, UniProt P43351); assay type: functional, biochemical
T4 sequence (P43351 whole entry): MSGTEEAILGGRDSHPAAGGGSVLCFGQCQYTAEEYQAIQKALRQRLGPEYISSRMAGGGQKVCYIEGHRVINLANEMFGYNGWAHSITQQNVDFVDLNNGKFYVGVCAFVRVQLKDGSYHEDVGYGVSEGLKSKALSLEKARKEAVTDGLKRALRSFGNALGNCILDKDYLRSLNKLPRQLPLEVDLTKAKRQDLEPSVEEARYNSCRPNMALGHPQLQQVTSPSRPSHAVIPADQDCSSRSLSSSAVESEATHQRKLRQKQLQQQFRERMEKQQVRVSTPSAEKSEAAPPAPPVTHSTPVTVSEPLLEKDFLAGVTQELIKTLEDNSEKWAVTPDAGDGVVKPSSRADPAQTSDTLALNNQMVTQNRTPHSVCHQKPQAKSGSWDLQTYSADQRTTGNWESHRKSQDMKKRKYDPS

Beta-galactosidase [5] = target: T5, Beta-galactosidase (Escherichia coli, UniProt Q8VNN2); experiment: Dose response counterscreen for EBI2 assay utilizing the enzyme, b-galactosidase.; assay type: functional
Protein skinhead-1 = target: T6, Protein skinhead-1 (Caenorhabditis elegans, UniProt P34707); assay type: functional
T6 sequence (P34707 whole entry): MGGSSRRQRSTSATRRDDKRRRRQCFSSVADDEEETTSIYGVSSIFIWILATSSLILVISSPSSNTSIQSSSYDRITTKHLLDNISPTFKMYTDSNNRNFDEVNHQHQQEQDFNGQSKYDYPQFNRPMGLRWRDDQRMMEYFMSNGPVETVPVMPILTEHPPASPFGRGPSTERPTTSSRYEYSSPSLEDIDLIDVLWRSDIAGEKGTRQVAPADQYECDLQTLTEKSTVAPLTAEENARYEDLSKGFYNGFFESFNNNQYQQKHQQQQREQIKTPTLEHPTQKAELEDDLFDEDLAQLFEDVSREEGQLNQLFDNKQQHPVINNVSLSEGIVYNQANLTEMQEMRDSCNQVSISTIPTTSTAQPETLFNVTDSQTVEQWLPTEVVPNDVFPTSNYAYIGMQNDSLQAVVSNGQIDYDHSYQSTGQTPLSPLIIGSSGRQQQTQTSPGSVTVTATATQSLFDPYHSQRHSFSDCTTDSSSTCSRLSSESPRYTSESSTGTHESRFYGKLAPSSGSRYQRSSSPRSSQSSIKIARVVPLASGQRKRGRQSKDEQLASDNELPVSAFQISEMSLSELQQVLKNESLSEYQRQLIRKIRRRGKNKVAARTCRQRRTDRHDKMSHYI

[6] = reduction of Shn3 3'UTR-driven luciferase in osteoblasts – cell-based, Clone20 osteoblasts, firefly luciferase, cherry-picked, dose response (AID 624132); assay type: functional;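 note: firefly luciferase luminescence from reporter carrying the Shn3 3'UTR in osteoblasts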
Paired box protein Pax-8 = Paired box protein Pax-8 (Homo sapiens, UniProt Q06710); experiment: PAX8 transcriptional activity inhibition in RMG-I – RMG-I cells, luciferase, cherry-pick, dose response (AID 687027); assay type: functional, cell-based;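 note: luciferase reporter driven by Pax8 target thyroperoxidase promoter measured by SteadyGlo luminescence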
HEK293 = experiment: EBV LMP1 TES2 canonical NF-kB signalling blockers – cell-based, HEK293, luciferase, cherry-pick, dose response (AID 588343); assay type: functional; settings: Homo sapiens
[7] = non-specific 3'UTR reporter inhibition in Clone20-Shn3RL – cell-based, Renilla luciferase, cherry-picked, counter-screen for Shn3 inhibitor project, dose response (AID 624133); assay type: functional
Beta-galactosidase [8] = target: T5, Beta-galactosidase; experiment: PubChem AID 485352; assay type: functional
[9] = target: T7, Type-1 angiotensin II receptor (Homo sapiens, UniProt P30556); experiment: antagonism of angiotensin II type 1 receptor – cell-based, uHTS hits, selectivity assay for APJ receptor antagonist project, dose response (AID 463214); assay type: functional;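 note: antagonist potency against angiotensin II stimulated AT1 response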
T7 sequence (P30556 whole entry): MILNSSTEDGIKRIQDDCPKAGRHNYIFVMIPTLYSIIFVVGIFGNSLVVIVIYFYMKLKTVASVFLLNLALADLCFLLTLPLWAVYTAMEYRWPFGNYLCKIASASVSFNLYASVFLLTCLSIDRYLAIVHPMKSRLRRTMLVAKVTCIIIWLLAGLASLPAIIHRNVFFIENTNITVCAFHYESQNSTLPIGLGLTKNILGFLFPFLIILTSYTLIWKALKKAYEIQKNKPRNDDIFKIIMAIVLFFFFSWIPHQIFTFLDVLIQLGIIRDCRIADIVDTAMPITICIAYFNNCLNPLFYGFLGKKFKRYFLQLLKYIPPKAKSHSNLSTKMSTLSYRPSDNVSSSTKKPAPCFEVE

[10] = target: T8, Corticotropin-releasing factor receptor 2/Corticotropin-releasing factor-binding protein (Homo sapiens, UniProt P24387+Q13324); experiment: activators of CRF receptor 2 with binding protein – uHTS hits, confirmation (AID 602473); assay type: functional; settings: read-out: EC50_Mean
T8 sequence (Q13324 whole entry): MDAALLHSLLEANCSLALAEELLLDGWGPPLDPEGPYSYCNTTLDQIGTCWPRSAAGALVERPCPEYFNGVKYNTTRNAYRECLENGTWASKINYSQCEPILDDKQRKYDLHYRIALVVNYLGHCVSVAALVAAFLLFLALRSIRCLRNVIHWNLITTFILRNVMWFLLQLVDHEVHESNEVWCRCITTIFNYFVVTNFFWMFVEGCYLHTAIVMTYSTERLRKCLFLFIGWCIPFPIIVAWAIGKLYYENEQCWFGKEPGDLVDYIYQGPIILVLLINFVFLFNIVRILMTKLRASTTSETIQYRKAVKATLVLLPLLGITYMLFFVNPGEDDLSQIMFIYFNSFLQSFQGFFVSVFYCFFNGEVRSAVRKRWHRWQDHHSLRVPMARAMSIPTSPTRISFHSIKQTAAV
T8 sequence (P24387 whole entry): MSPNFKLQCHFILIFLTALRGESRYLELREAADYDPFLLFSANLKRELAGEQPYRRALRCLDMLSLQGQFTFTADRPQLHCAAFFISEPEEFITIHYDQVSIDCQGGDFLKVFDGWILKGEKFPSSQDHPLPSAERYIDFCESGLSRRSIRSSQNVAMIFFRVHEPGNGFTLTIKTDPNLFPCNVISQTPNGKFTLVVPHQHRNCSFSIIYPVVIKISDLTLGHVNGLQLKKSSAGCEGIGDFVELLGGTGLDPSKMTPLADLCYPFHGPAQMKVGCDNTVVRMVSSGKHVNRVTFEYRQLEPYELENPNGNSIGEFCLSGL

[11] = target: T9, Low molecular weight phosphotyrosine protein phosphatase (Homo sapiens, UniProt P24666); assay type: functional; settings: read-out: IC50_Mean;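 note: Dose-response confirmation assay measuring inhibition of LMPTP enzyme activity by fluorescence intensity read-out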
T9 sequence (P24666 whole entry): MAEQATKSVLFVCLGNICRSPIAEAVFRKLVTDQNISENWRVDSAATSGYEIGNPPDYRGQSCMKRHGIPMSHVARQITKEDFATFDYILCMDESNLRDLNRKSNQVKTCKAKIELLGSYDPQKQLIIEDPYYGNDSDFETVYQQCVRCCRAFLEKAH

[12] = NIH3T3 cell viability loss – ATP luminescence, mouse fibroblasts, counter-screen, dose response (AID 2010); assay type: functional, cell-based;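 note: cells exposed to compound for about 90 hours before reading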
[13] = Trypanosoma cruzi growth suppression in host cells – NIH3T3 host cells, beta-gal luminescence, confirmation (AID 2044); assay type: functional, cell-based;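 note: intracellular parasites grown in NIH/3T3 mouse fibroblasts as host cells; luminescent beta-galactosidase reporter signal from transgenic T. cruzi replicating inside host cells; inhibitors lower the luminescence signal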
[14] = viability of uninfected HEp-2 cells – cell-based, HTS, cytotoxicity control for RSV inhibitor project, dose response (AID 2410); assay type: functional; settings: human respiratory syncytial virus

T5 sequence (Q8VNN2 whole entry): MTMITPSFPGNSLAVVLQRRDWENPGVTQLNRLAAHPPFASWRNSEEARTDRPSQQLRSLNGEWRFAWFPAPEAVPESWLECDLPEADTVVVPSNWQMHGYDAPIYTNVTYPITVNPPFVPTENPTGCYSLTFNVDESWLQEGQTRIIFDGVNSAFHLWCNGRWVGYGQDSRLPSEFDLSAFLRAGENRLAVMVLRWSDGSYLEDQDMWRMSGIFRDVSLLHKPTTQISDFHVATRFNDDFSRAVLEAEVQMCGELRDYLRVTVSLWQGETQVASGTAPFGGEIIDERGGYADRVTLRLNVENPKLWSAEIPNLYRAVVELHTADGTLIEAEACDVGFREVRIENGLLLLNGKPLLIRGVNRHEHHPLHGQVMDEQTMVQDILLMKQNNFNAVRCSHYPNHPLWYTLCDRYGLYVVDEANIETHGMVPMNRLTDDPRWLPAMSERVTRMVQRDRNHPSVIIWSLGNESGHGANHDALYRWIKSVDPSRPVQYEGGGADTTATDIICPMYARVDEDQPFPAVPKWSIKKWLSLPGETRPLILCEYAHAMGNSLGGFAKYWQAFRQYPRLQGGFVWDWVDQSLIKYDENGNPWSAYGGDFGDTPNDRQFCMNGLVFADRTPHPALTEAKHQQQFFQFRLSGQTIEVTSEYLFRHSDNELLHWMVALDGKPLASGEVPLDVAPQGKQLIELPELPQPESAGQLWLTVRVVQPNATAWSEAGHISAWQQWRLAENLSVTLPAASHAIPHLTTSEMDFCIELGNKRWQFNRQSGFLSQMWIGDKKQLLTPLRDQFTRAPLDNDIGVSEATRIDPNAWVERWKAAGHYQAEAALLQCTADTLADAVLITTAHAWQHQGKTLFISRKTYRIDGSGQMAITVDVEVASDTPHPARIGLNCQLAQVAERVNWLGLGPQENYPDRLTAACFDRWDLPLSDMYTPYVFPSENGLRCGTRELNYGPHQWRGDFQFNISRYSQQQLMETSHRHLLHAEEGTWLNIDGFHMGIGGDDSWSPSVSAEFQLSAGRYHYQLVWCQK
Chain of Paired box protein Pax-8 (Q06710 whole entry): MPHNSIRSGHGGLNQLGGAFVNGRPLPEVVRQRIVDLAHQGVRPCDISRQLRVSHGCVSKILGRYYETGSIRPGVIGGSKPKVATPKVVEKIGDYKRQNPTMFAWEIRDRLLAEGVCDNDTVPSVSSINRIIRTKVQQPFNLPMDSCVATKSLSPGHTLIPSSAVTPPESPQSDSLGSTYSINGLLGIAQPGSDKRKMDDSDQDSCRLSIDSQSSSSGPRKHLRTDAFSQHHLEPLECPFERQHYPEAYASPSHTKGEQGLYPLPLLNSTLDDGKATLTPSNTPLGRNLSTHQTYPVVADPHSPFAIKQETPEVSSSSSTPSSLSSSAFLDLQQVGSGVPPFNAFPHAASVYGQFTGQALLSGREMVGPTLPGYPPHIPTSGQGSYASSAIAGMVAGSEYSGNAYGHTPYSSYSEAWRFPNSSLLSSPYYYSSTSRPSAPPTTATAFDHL

COc1ccccc1S(=O)(=O)N1CC[C@@H]2[C@H](CO)Nc3ccc(-c4cccc(C#N)c4)cc3[C@@H]21
AC50 [1]: 18.5 µM (active)

Cc1nc2ccccc2c2oc(C(=O)N3CCC(N4CCCCC4)CC3)cc12
AC50 [2]: 23.1 µM (active) | IC50 [3]: > 20 µM (inactive)

CCN1CCN(C(S)=Nc2ccc3nc(N4CCN(C)CC4)cc(C)c3c2)CC1
AC50 [2]: 91.2 µM (active) | AC50 [4]: 4.49 µM (active)

CC(C)(C)c1nnc(N/N=C/c2ccc(Br)cc2)n(N)c1=O
IC50 (Beta-galactosidase [5]): > 80 µM (inactive)

COc1ccccc1-n1cc([C@@H]2C[C@H]3CN(c4ccccc4)C(=O)[C@]34CCCN24)cn1
IC50 (Protein skinhead-1): > 100 µM (inactive) | AC50 [6]: 1.46 µM (active) | AC50 (Paired box protein Pax-8): 5.21 µM (active) | AC50 (HEK293): 19 µM (active) | AC50 [7]: 1.8 µM (active)

O=C1OCC(CO)(CO)N=C1NNc1cc(Cl)ccc1Cl
EC50 (Beta-galactosidase [8]): > 40 µM (inactive) | IC50 [9]: 12.1 µM (active)

C=C(C)CSc1nc(N)c2c3c(sc2n1)CCC3
EC50 [10]: > 53 µM (inactive) | AC50 [1]: 18.2 µM (active)

COc1ccc(NC(=O)Nc2cccc3c2O[C@@H](CN(C)CC2CCCCC2)[C@@H](C)CN([C@H](C)CO)C3=O)cc1
EC50 (Beta-galactosidase [8]): > 40 µM (inactive) | IC50 [9]: > 40 µM (not active)

NC(=O)C1CCCN(C(=O)NC2CCCCC2)C1 (stereo not drawn)
IC50 (Protein skinhead-1): > 100 µM (inactive)

S=C(N/N=C/c1ccccc1)N1CCOCC1
EC50 (Beta-galactosidase [8]): > 40 µM (inactive) | IC50 [9]: 13.3 µM (active)

O=C(CN1CCCCC1)n1c2ccccc2c2ccccc21
AC50 [2]: 12.1 µM (active) | AC50 [4]: 5.64 µM (active)

CCn1c2ccccc2c2cc(/C=N/NC(=O)c3ccccc3)ccc21
AC50 (HEK293): 3.99 µM (active)

Clc1ccc(-c2csc(-c3ccncc3)n2)cc1
IC50 (Protein skinhead-1): 4.45 µM (active)

O=C(COc1ccc(Br)cc1)N1CCN(C2CCCC2)CC1
IC50 (Beta-galactosidase [5]): > 80 µM (inactive)

Cn1c(CCN2CCN(c3ccccn3)CC2)nc2cc(NC(=O)COc3ccc([N+](=O)[O-])cc3)ccc21
IC50 [11]: 8.47 µM (active)

O=C(c1ccc(-n2cnnn2)cc1)N1CCN(C(c2ccccc2)c2ccccc2)CC1
IC50 (Beta-galactosidase [5]): > 80 µM (inactive)

CC1=C(C#N)C(c2cccnc2)C2=C(O)CC(c3ccc(Cl)cc3)CC2=N1 (stereo not drawn)
EC50 [12]: 21.8 µM (active) | EC50 [13]: 2.26 µM (active) | AC50 [1]: 0.67 µM (active)

Cc1ccc(/C=C/c2ccc3cccc(O)c3n2)s1
IC50 (Protein skinhead-1): > 100 µM (inactive)

O=C(Nc1ccc(F)c(F)c1)c1ccc(-n2cncn2)c([N+](=O)[O-])c1
CC50 [14]: 18.3 µM (active) | AC50 [1]: 1.49 µM (active)
